Results taken from US20150105252A1, “SUBSTITUTED PYRAZOLES AS HERBICIDES” (E I DU PONT DE NEMOURS AND COMPANY, priority 2013, published 2015).

What was measured:
[1] = tested on: dayflower, VA; assay: Test E preemergence; type: in vivo, Commelina virginica; settings: 21 days, scale 0 to 100
Description: (§1) Seeds of plant species selected from bermudagrass (Cynodon dactylon), Surinam grass (Brachiaria decumbens), crabgrass, large (large crabgrass, Digitaria sanguinalis), crabgrass, naked (naked crabgrass, Digitaria nuda), foxtail, green (green foxtail, Setaria viridis), johnsongrass (Sorghum halepense), kochia (Kochia scoparia), morningglory (pitted morningglory, Ipomoea lacunosa), nutsedge, purple (purple nutsedge, Cyperus rotundus), ragweed (common ragweed, Ambrosia elation), mustard, black (black mustard, Brassica nigra), guineagrass (Panicum maximum), dallisgrass (Paspalum dilatatum), barnyardgrass (Echinochloa crus-galli), sandbur (southern sandbur, Cenchrus echinatus), sowthistle (common sowthistle, Sonchus oleraceous), ryegrass, Italian (Italian ryegrass, Lolium multiflorum), signalgrass (broadleaf signalgrass, Brachiaria platyphylla), dayflower, VA (Virginia (VA) dayflower, Commelina virginica), bluegrass (annual bluegrass, Poa annua), quackgrass (Elytrigia repens), mallow (common mallow, Malva sylvestris), buckwheat, wild (wild buckwheat, Polygonum convolvulus), leafy spurge (Euphorbia esula), common chickweed (Stellaria media), wild poinsettia (Euphorbia heterophylla), pigweed, palmer (palmer pigweed, Amaranthus palmeri), and pigweed (redroot pigweed, Amaranthus retroflexus) were planted into a blend of loam soil and sand and treated preemergence with test chemicals formulated in a non-phytotoxic solvent mixture which included a surfactant.
(§2) Treated plants and controls were maintained in a greenhouse for 21 days, after which time all species were compared to controls and visually evaluated. Plant response ratings, summarized in Table E, are based on a scale of 0 to 100 where 0 is no effect and 100 is complete control. A dash (-) response means no test result.

[2] = tested on: johnsongrass; assay: Test E preemergence; type: in vivo, Sorghum halepense; settings: 21 days, scale 0 to 100
Description: as §1, §2

[3] = tested on: common ragweed; assay: Test F postemergence; type: in vivo, Ambrosia elation; settings: scale 0 to 100
Description: (§3) Seeds of plant species selected from corn (Zea mays), soybean (Glycine max), velvetleaf (Abutilon theophrasti), lambsquarters (Chenopodium album), wild poinsettia (Euphorbia heterophylla), pigweed, palmer (palmer pigweed, Amaranthus palmeri), common waterhemp (Amaranthus rudis), surinam grass (Brachiaria decumbens), large crabgrass (Digitaria sanguinalis), crabgrass, Brazil (Brazilian crabgrass, Digitaria horizontalis), fall panicum (Panicum dichotomiflorum), giant foxtail (Setaria faberii), green foxtail (Setaria viridis), goosegrass (Eleusine indica), johnsongrass (Sorghum halepense), common ragweed (Ambrosia elation), barnyardgrass (Echinochloa crus-galli), southern sandbur (Cenchrus echinatus), arrowleaf sida (Sida rhombifolia), Italian ryegrass (Lolium multiflorum), dayflower, VA (Virginia (VA) dayflower, Commelina virginica), field bindweed (Convolvulus arvensis), cocklebur (common cocklebur, Xanthium strumarium), morningglory (Ipomoea coccinea), nightshade (eastern black nightshade, Solanum ptycanthum), kochia (Kochia scoparia), yellow nutsedge (Cyperus esculentus), and hairy beggarticks (Bidens pilosa), were planted into a silt loam soil and treated preemergence with test chemicals formulated in a non-phytotoxic solvent mixture which included a surfactant.
(§4) At the same time, plants from these crop and weed species and also horseweed (Canada horseweed, Conyza canadensis), smartweed (ladysthumb smartweed, Polygonum persicaria), waterhemp_RES1, (ALS & Triazine resistant common waterhemp, Amaranthus rudis), and waterhemp_RES2, (ALS & HPPD resistant common waterhemp, Amaranthus rudis) were treated with postemergence applications of test chemicals formulated in the same manner. Plants ranged in height from 2 to 18 cm for postemergence treatments (1- to 4-leaf stage). Treated plants and controls were maintained in a greenhouse for 14 to 21 days, after which time all species were compared to controls and visually evaluated. Plant response ratings, summarized in Table F, are based on a scale of 0 to 100 where 0 is no effect and 100 is complete control. A dash (-) response means no test result.

[4] = tested on: common waterhemp; assay: Test F postemergence; type: in vivo, Amaranthus rudis; settings: scale 0 to 100
Description: as §3, §4

[5] = tested on: waterhemp_RES1 (ALS & Triazine resistant common waterhemp); assay: Test F postemergence; type: in vivo, Amaranthus rudis; settings: scale 0 to 100
Description: as §3, §4

[6] = tested on: waterhemp_RES2 (ALS & HPPD resistant common waterhemp); assay: Test F postemergence; type: in vivo, Amaranthus rudis; settings: scale 0 to 100
Description: as §3, §4

[7] = tested on: pigweed, palmer; assay: Test E preemergence; type: in vivo, Amaranthus palmeri; settings: 21 days, scale 0 to 100
Description: as §1, §2

[8] = tested on: cocklebur; assay: Test F preemergence; type: in vivo, Xanthium strumarium; settings: scale 0 to 100
Description: as §3
as §4, with “A dash (-) response means no test result.” left out

SMILES	Plant response rating, Dayflower, VA ([1]; 16 g ai/ha)	Plant response rating, Dayflower, VA ([1]; 31 g ai/ha)	Plant response rating, Dayflower, VA ([1]; 62 g ai/ha)	Plant response rating, Dayflower, VA ([1]; 125 g ai/ha)	Plant response rating, Dayflower, VA ([1]; 250 g ai/ha)	Plant response rating, Johnsongrass ([2]; 16 g ai/ha)	Plant response rating, Johnsongrass ([2]; 31 g ai/ha)	Plant response rating, Johnsongrass ([2]; 62 g ai/ha)	Plant response rating, Johnsongrass ([2]; 125 g ai/ha)	Plant response rating, Johnsongrass ([2]; 250 g ai/ha)	Plant response rating, Common Ragweed ([3]; Postemergence, 31 g ai/ha)	Plant response rating, Common Ragweed ([3]; Postemergence, 125 g ai/ha)	Plant response rating, Common Ragweed ([3]; Postemergence, 250 g ai/ha)	Plant response rating, Common Ragweed ([3]; postemergence, 62 g ai/ha)	Plant response rating, Common Ragweed ([3]; postemergence, 500 g ai/ha)	Plant response rating, Common Waterhemp ([4]; Postemergence, 31 g ai/ha)	Plant response rating, Common Waterhemp ([4]; Postemergence, 125 g ai/ha)	Plant response rating, Common Waterhemp ([4]; Postemergence, 250 g ai/ha)	Plant response rating, Common Waterhemp ([4]; postemergence, 62 g ai/ha)	Plant response rating, Common Waterhemp ([4]; postemergence, 500 g ai/ha)	further results
CCc1cc(C(=O)NCC(F)(F)F)nn1Cc1ccnc(C(F)(F)F)c1 [Compound 78, 5-ethyl-N-(2,2,2-trifluoroethyl)-1-[[(2-trifluoromethyl)-4-pyridinyl]methyl]-1H-pyrazole-3-carboxamide]	85	100	100	100	100	40	80	85	100	100	65	70	80	50	95	70	75	70	60	98	Plant response rating, Waterhemp_RES1 ([5]; Postemergence, 31 g ai/ha): 60; Plant response rating, Waterhemp_RES1 ([5]; Postemergence, 125 g ai/ha): 60; Plant response rating, Waterhemp_RES1 ([5]; Postemergence, 250 g ai/ha): 65; Plant response rating, Waterhemp_RES1 ([5]; postemergence, 62 g ai/ha): 70; Plant response rating, Waterhemp_RES1 ([5]; postemergence, 500 g ai/ha): 100; Plant response rating, Waterhemp_RES2 ([6]; Postemergence, 31 g ai/ha): 60; Plant response rating, Waterhemp_RES2 ([6]; Postemergence, 125 g ai/ha): 70; Plant response rating, Waterhemp_RES2 ([6]; Postemergence, 250 g ai/ha): 75; Plant response rating, Waterhemp_RES2 ([6]; postemergence, 62 g ai/ha): 65; Plant response rating, Waterhemp_RES2 ([6]; postemergence, 500 g ai/ha): 95; Plant response rating, Pigweed, Palmer ([7]; 16 g ai/ha): 40; Plant response rating, Pigweed, Palmer ([7]; 31 g ai/ha): 80; Plant response rating, Pigweed, Palmer ([7]; 62 g ai/ha): 100; Plant response rating, Pigweed, Palmer ([7]; 125 g ai/ha): 100; Plant response rating, Pigweed, Palmer ([7]; 250 g ai/ha): 100
CCc1cc(C(=O)NC(C)C)nn1Cc1ccnc(C(F)(F)F)c1 [Compound 103]	80	98	100	100	100	70	100	100	100	100											
CCOc1cc(C(=O)NCC(F)(F)F)nn1Cc1ccnc(C(F)(F)F)c1 [Compound 104]	98	98	100	100	100	95	100	100	100	100	40	70	98	50	98	75	85	85	80	90	Plant response rating, Waterhemp_RES1 ([5]; Postemergence, 31 g ai/ha): 70; Plant response rating, Waterhemp_RES1 ([5]; Postemergence, 125 g ai/ha): 90; Plant response rating, Waterhemp_RES1 ([5]; Postemergence, 250 g ai/ha): 75; Plant response rating, Waterhemp_RES1 ([5]; postemergence, 62 g ai/ha): 75; Plant response rating, Waterhemp_RES1 ([5]; postemergence, 500 g ai/ha): 85; Plant response rating, Waterhemp_RES2 ([6]; Postemergence, 31 g ai/ha): 80; Plant response rating, Waterhemp_RES2 ([6]; Postemergence, 125 g ai/ha): 95; Plant response rating, Waterhemp_RES2 ([6]; Postemergence, 250 g ai/ha): 80; Plant response rating, Waterhemp_RES2 ([6]; postemergence, 62 g ai/ha): 80; Plant response rating, Waterhemp_RES2 ([6]; postemergence, 500 g ai/ha): 85
CCCc1cc(C(=O)NCC(F)(F)F)nn1Cc1ccnc(C(F)(F)F)c1 [Compound 105]	35	75	95	95	100	35	80	98	98	100	50	90	90	70	95	65	65	75	60	80	Plant response rating, Waterhemp_RES1 ([5]; Postemergence, 31 g ai/ha): 70; Plant response rating, Waterhemp_RES1 ([5]; Postemergence, 125 g ai/ha): 75; Plant response rating, Waterhemp_RES1 ([5]; Postemergence, 250 g ai/ha): 90; Plant response rating, Waterhemp_RES1 ([5]; postemergence, 62 g ai/ha): 70; Plant response rating, Waterhemp_RES1 ([5]; postemergence, 500 g ai/ha): 95; Plant response rating, Waterhemp_RES2 ([6]; Postemergence, 31 g ai/ha): 60; Plant response rating, Waterhemp_RES2 ([6]; Postemergence, 125 g ai/ha): 75; Plant response rating, Waterhemp_RES2 ([6]; Postemergence, 250 g ai/ha): 85; Plant response rating, Waterhemp_RES2 ([6]; postemergence, 62 g ai/ha): 70; Plant response rating, Waterhemp_RES2 ([6]; postemergence, 500 g ai/ha): 95
CCOc1cc(C(=O)NC(C)C)nn1Cc1ccnc(C(F)(F)F)c1 [Compound 188]											50	70	85	60	98	60	80	80	70	90	Plant response rating, Waterhemp_RES1 ([5]; Postemergence, 31 g ai/ha): 60; Plant response rating, Waterhemp_RES1 ([5]; Postemergence, 125 g ai/ha): 50; Plant response rating, Waterhemp_RES1 ([5]; Postemergence, 250 g ai/ha): 80; Plant response rating, Waterhemp_RES1 ([5]; postemergence, 62 g ai/ha): 70; Plant response rating, Waterhemp_RES1 ([5]; postemergence, 500 g ai/ha): 85; Plant response rating, Waterhemp_RES2 ([6]; Postemergence, 31 g ai/ha): 65; Plant response rating, Waterhemp_RES2 ([6]; Postemergence, 125 g ai/ha): 50; Plant response rating, Waterhemp_RES2 ([6]; Postemergence, 250 g ai/ha): 50; Plant response rating, Waterhemp_RES2 ([6]; postemergence, 62 g ai/ha): 70; Plant response rating, Waterhemp_RES2 ([6]; postemergence, 500 g ai/ha): 60
CCOc1cc(C(=O)NC2CC2)nn1Cc1ccnc(C(F)(F)F)c1 [Compound 189]	90	100	100			25	100	100													Plant response rating, Dayflower, VA ([1]; 4 g ai/ha): 0; Plant response rating, Dayflower, VA ([1]; 8 g ai/ha): 30; Plant response rating, Johnsongrass ([2]; 4 g ai/ha): 0; Plant response rating, Johnsongrass ([2]; 8 g ai/ha): 0
CCc1cc(C(=O)NC2CC2)nn1Cc1ccnc(OCC(F)(F)F)c1 [Compound 200]																					Plant response rating, Cocklebur ([8]; 16 g ai/ha): 20; Plant response rating, Cocklebur ([8]; 62 g ai/ha): 30; Plant response rating, Cocklebur ([8]; 250 g ai/ha): 30
